Reference: patent US5376679A, “Bicyclic or tricyclic biocidal compounds” (Shell Internationale Research Maatschappij B.V., priority 1988, dated 1994)
Converted amounts (≈) assume the structure as drawn.

How the values were obtained:
[1] = test system: Escherichia coli; assay: Minimum inhibitory concentration, Escherichia coli (Ec); format: cell-based, Escherichia coli (NCIB 9517); settings: 30° C., 24 and 72 hours
Protocol: (§1) In respect of S. aureus, B. subtilis and E. coli, the microorganisms were cultured in 50 ml aliquots of a tryptone soya broth in 250 ml conical flasks at 30° C. on a rotary shaker at 200 rpm for 24 hours. Tryptone soya broth was prepared by adding 17 g pancreatic digest of casein, 3 g […] digest of soyabean meal, 5 g of sodium chloride, 2.5 g of dipotassium hydrogen phosphate and 2.5 g of dextrose to 1 liter of distilled water, mixing and sterilising by autoclaving at 121° C. for 15 minutes. 1 ml aliquots of the resulting cultures were mixed with 99 ml of fresh tryptone soya broth and used as inocula for tests. […] Test procedures were as follows: (ii) Dilution Series for Other Test Bacteria, Yeast and Filamentous Fungi Dilution series from the stock solution of each compound were prepared in sterile distilled water. These contained 50, 100, 500 and 1000 ppm compound. To duplicate wells of a compartmentalised square petri dish 0.3 ml of each test compound concentration was added together with 2.7 ml of one of the microbial inocula described above. […] After incubation, in the dark, at 30° C. the wells were examined for the presence or absence of growth. Bacterial and yeast cultures were examined after 24 hours and 72 hours incubation and the fungi cultures after 3, 7 and 10 days. By means of the above tests minimum inhibitory concentrations were determined for the various test compounds.

[2] = test system: Saccharomyces cerevisiae; assay: Minimum inhibitory concentration, yeast (Sc); format: cell-based, Saccharomyces cerevisiae (ATCC 9763); settings: 30° C., 24 and 72 hours
Protocol: Inocula of S. cerevisiae were prepared as for S. aureus, B. subtilis and E. coli, but using yeast malt broth in place of the typtone soya broth. The yeast malt broth was prepared by suspending 3 g yeast extract, 3 g malt extract, 5 g peptone and 10 g dextrose in 1 liter of distilled water, warming to achieve solution and sterilising by autoclaving at 121° C. for 15 minutes.
(§2) Test procedures were as follows:
(§3) (ii) Dilution Series for Other Test Bacteria, Yeast and Filamentous Fungi
(§4) Dilution series from the stock solution of each compound were prepared in sterile distilled water. These contained 50, 100, 500 and 1000 ppm compound. To duplicate wells of a compartmentalised square petri dish 0.3 ml of each test compound concentration was added together with 2.7 ml of one of the microbial inocula described above. This gave final concentrations of the test compound of 5, 10, 50 and 100 ppm.
(§5) After incubation, in the dark, at 30° C. the wells were examined for the presence or absence of growth. Bacterial and yeast cultures were examined after 24 hours and 72 hours incubation and the fungi cultures after 3, 7 and 10 days.
(§6) By means of the above tests minimum inhibitory concentrations were determined for the various test compounds.

[3] = test system: Bacillus subtilis; assay: Minimum inhibitory concentration, Bacillus subtilis (Bs); format: cell-based; settings: 30° C., 24 and 72 hours
Protocol: as §1

[4] = test system: Staphylococcus aureus; assay: Minimum inhibitory concentration, Staphylococcus aureus (Sa); format: cell-based, Staphylococcus aureus (NCIB 6571); settings: 30° C., 24 and 72 hours
Protocol: as §1

[5] = test system: Desulfovibrio sp.; assay: Minimum inhibitory concentration, sulphate-reducing bacteria (Dsp); format: cell-based; settings: 30° C., 2, 5 and 10 days
Protocol: The sulphate reducing bacteria Desulfovibrio sp. were cultured in a modified Postgate's Medium B for 48 hours at 30° C. and used directly as an inoculum. The modified Postgate's Medium B consisted of 0.5 g dipotassium hydrogen phosphate, 1 g ammonium chloride, 1 g sodium sulphate, 5 g sodium lactate, 1 g yeast extract, 0.1 ml thioglycolic acid, 0.1 ml ascorbic acid, 0.5 g ferrous sulphate heptahydrate, 750 ml aged seawater and 250 ml distilled water, pH adjusted to 7.8, divided into aliquots and sterilised by autoclaving at 121° C. for 15 minutes. […] Test procedures were as follows: (i) Suphate-reducing Bacteria Test Dilution Series Duplicate aliquots (9.9 ml) of dilution series from the stock solutions of each compound were prepared in a modified Postgate's Medium B described above. These contained 100 ppm compound. These were then inoculated with 0.1 ml of inoculum. After incubation at 30° C., the presence or absence of growth--as indicated by a blackening of the medium due to ferrous sulphide production--was recorded at 2, 5 and 10 days. […] By means of the above tests minimum inhibitory concentrations were determined for the various test compounds.

[6] = test system: Chaetomium globosum; assay: Minimum inhibitory concentration, Chaetomium globosum (Chg); format: cell-based
Protocol: (§7) Inocula of the fungi Aspergillus niger, Cladosporium resinae and Chaetomium globosum were prepared containing 5×10^5 conidia/ml in a potato dextrose broth. The potato dextrose broth was prepared by suspending 4 g potato extract and 20 g dextrose in 1 liter of distilled water, warming to achieve solution, separating into aliquots and sterilising by autoclaving at 121° C. for 15 minutes.
as §2, §3, §4, §5, §6

[7] = test system: Aspergillus niger; assay: Minimum inhibitory concentration, Aspergillus niger (An); format: cell-based, Aspergillus niger (CMI 17454); settings: 30° C., 3, 7 and 10 days
Protocol: as §7, §2, §3, §4, §5, §6

[8] = test system: Cladosporium resinae; assay: Minimum inhibitory concentration, Cladosporium resinae (Cr); format: cell-based; settings: Amorphotheca resinae, 30° C., 3, 7 and 10 days
Protocol: as §7, §2, §3, §4, §5, §6

[9] = test system: Pseudocercosporella herpotrichoides; assay: In vitro activity against wheat eyespot (Ph); format: cell-based; parameters: Ph: activity against wheat eyespot: scale not given here; settings: in vitro, 100 ppm in agar, 11 days; activity grade 1 or 2, not defined
Protocol: (c) Activity Against Wheat Eyespot (Pseudocercosporella herpotrichoides; Ph)
The test is an in vitro one. Samples are prepared wherein 0.7 mls solution containing 2 mg active material dissolved in acetone is evenly dispersed in 20 ml molten half-strength potato dextrose agar (formed by dissolving 2 g potato extract, 10 g dextrose and 7.5 g agar in 1 liter of water and sterilising for 15 minutes and 121° C.) and the resulting 20 ml portions are allowed to set in 9 cm petri dishes. The concentration of active material in the resulting samples is 100 ppm. Upon setting, two plugs of 5 mm diameter taken from the advancing edge of a stock plate of a 3 to 4 week old culture of P.herpotrichoides on full strength potato dextrose agar, incubated at 20°-22° C. in darkness, are placed, equally spaced on the surface of each sample, mycelial side uppermost. The samples are incubated for 11 days at 20°-22° C. in darkness before assessment. Diametric growth is measured with the width of the plug subtracted and results compared with growth on a sample wherein 0.7 ml acetone containing no active material is dispersed in 20 ml half-strength potato agar.

[10] = test system: Fusarium culmorum; assay: Activity against seedling wheat blight, soil drench (Fs); format: in vivo; parameters: scale not given here; settings: 10 kg/ha, 21 days, activity grade 1 or 2, not defined
Protocol: (d) Activity Against Seedling Wheat Blight (Fusarium culmorum; Fs)
The test is an anti-sporulant one using a soil drench. Surface sterilised wheat seeds (var Waggoner) are inoculated by soaking in an aqueous suspension containing 7×10^5 spores/ml (60 mg seed per 80 ml suspension) at 22° C. for 6 hours. The seeds are then sown in pots (5 per pot) in sand at a depth of 1 cm. 1 day after inoculation and planting the active material is applied at a rate of 10 kg/ha by pouring on a soil drench (concentration 0.36 g/l active material in 12% v/v acetone/water) evenly over the sand. The pots are then transferred to a glasshouse, kept at 25° C. and watered sparingly. 21 days after inoculation the resulting seedlings are removed from the pots and their roots are gently washed. Visual assessment is made based on lesion development on stem base and upper roots in comparison with control seedlings.

[11] = test system: Plasmopara viticola; assay: Direct protectant activity against vine downy mildew (Pvp); format: in vivo; parameters: Pvp: direct protectant activity against vine downy mildew: scale not given here; settings: for Pvp: direct protectant activity against vine downy mildew: foliar spray, 1 kg/ha, activity grade 1 or 2, not defined
Source text: (a) Direct Protectant Activity Against Vine Downy Mildew (Plasmopara viticola; Pvp)
The test is a direct protectant one, using a foliar spray. The lower surfaces of leaves of whole vine plants (cv Cabernet Sauvignon) are sprayed with a solution of active material in 1:1 v/v water/acetone containing 0.04% w "Triton X-155" (trade mark) (octylphenol polyoxyethylene surfactant), at a dosage of 1 kilogram of active material per hectare using a track sprayer which delivers 620 liters/ha, and after a subsequent 24 hours under normal glasshouse conditions the lower surfaces of the leaves are inoculated by spraying with an aqueous solution containing 10^4 zoosporangia/ml. The inoculated plants are kept for 24 hours in a high humidity compartment, 5 days under normal glasshouse conditions and then returned for a further 24 hours to high humidity. Assessment is based on the percentage of leaf area covered by sporulation compared with that on control leaves.

[12] = test system: Erysiphe graminis f.sp. hordei; assay: Direct antisporulant activity against barley powdery mildew (Eg); format: in vivo; parameters: scale not given here; settings: foliar spray, 1 kg/ha; activity grade 1 or 2, not defined
Source text: (f) Activity Against Barley Powdery Mildew (Erysiphe graminis f.sp. hordei; Eg) The test is a direct antisporulant one, using a foliar spray. Leaves of barley seedlings, cultivar Golden Promise, are inoculated by dusting with mildew conidia one day prior to treatment with the test compound. The inoculated plants are kept overnight at glasshouse ambient temperature and humidity prior to treatment. […] After drying, plants are returned to a compartment at ambient temperature and humidity for up to 7 days, followed by assessment. Assessment is based on the percentage of leaf area covered by sporulation compared with that on leaves of control plants.

[13] = test system: Leptosphaeria nodorum; assay: Direct antisporulant activity against wheat leafspot (Ln); format: in vivo; parameters: scale not given here; settings: foliar spray, 1 kg/ha; activity grade 1 or 2, not defined
Protocol: (e) Activity Against Wheat Leafspot (Leptosphaeria nodorum; Ln) The test is a direct antisporulant one, using a foliar spray. Leaves of wheat plants ([…]), at the single leaf stage, are inoculated by spraying with an aqueous suspension containing 8×10^5 spores/mi. The inoculated plants are kept for 24 hours in a high humidity compartment prior to treatment. […] After drying, the plants are kept for 5 days under normal glasshouse conditions, followed by assessment. Assessment is based on the percentage of leaf area covered by sporulation compared with that on leaves of control plants.

SMILES	MIC [1] [µg/mL]	MIC [2] [µg/mL]	MIC [3] [µg/mL]	MIC [4] [µg/mL]	MIC [5] [µg/mL]	MIC ([6]; 30° C., 3, 7 and 10 days) [µg/mL]	MIC [7] [µg/mL]	MIC [8] [µg/mL]	Ph: activity against wheat eyespot [9]	Fs: activity against seedling wheat blight [10]	MIC ([6]; *only tested at 100 ppm) [µg/mL]	Pvp: direct protectant activity against vine downy mildew [11]	activity against Pvp ([11]; secondary screening)	Eg: activity against barley powdery mildew [12]	Ln: activity against wheat leafspot [13]
N#CN=[N+]([O-])c1cccc2c1OC(CO)C2 (stereo not drawn) [Example 12]	100 (≈ 456 µM)	> 100	50 (≈ 228 µM)	> 100	50 (≈ 228 µM)	100 (≈ 456 µM)	> 100	100 (≈ 456 µM)	–	–	–	–	–	–	–
N#CN=[N+]([O-])c1cccc2c1OC(CCl)C2 (stereo not drawn) [Example 13]	100 (≈ 421 µM)	100 (≈ 421 µM)	100 (≈ 421 µM)	100 (≈ 421 µM)	> 100	25 (≈ 105 µM)	10 (≈ 42.1 µM)	100 (≈ 421 µM)	–	–	–	–	–	–	–
CC1CCc2cccc([N+]([O-])=NC#N)c2O1 (stereo not drawn) [Example 14]	> 100	50 (≈ 230 µM)	> 100	> 100	100 (≈ 460 µM)	< 5	10 (≈ 46 µM)	25 (≈ 115 µM)	2	–	–	–	–	–	–
CC1(C)CCc2cc(Cl)cc([N+]([O-])=NC#N)c2O1 [Example 15]	> 100	50 (≈ 188 µM)	100 (≈ 376 µM)	> 100	> 100	> 100	10 (≈ 37.6 µM)	> 100	2	2	–	–	–	–	–
CC1(C)C=Cc2cccc([N+]([O-])=NC#N)c2O1 [Example 27]	> 100	> 100	> 100	> 100	100 (≈ 436 µM)	–	100 (≈ 436 µM)	25 (≈ 109 µM)	2	2	< 100	–	–	–	–
N#CN=[N+]([O-])c1ccc2c(c1)C=CCO2 [Example 28]	> 100	25 (≈ 124 µM)	50 to 100 (≈ 249 to 497 µM)	> 100	100 (≈ 497 µM)	25 (≈ 124 µM)	10 to 25 (≈ 49.7 to 124 µM)	25 to 50 (≈ 124 to 249 µM)	–	–	–	–	–	–	–
COC(=O)N=Nc1cc(C)cc2c1OC(C)(C)C2 [Example 32]	–	–	–	–	–	–	–	–	–	–	–	1	–	–	–
Cc1ccc(N=NC#N)c2c1CC(C)(C)O2 [Example 38]	–	–	–	–	–	–	–	–	–	–	–	2	high activity	–	–
C#CCOC(=O)N=Nc1ccc(C)c2c1OC(C)CC2 (stereo not drawn) [Example 39]	–	–	–	–	–	–	–	–	–	–	–	–	–	1	1
C#CCOC(=O)N=Nc1cc(C)c(Cl)c2c1OC(C)CC2 (stereo not drawn) [Example 41]	–	–	–	–	–	–	–	–	–	–	–	1	–	1	–
CCOC(=O)N=Nc1cc(C)c(Cl)c2c1OC(C)CC2 (stereo not drawn) [Example 42]	–	–	–	–	–	–	–	–	–	–	–	–	–	2	–
COC(=O)N=[N+]([O-])c1cc(C)cc2c1OC(C)(C)C2 [Example 44]	–	–	–	–	–	–	–	–	–	–	–	1	–	2	–
